Entries after “also recorded” stand apart in the source; their conditions may differ.
Tests used:
[1] = cited from earlier work
human leukemia cells = conditions: biological testing of 19-nor-analogs; cited from earlier work
osteoblast cell line = conditions: Yamamoto et al., J. Biol. Chem. 278, 31756 (2003); cited from earlier work
[2] = studies described in Shevde et al.; cited from earlier work
ovariectomized rats = assay: Whole body DEXA body composition in ovariectomized rats (Example 3); type: in vivo, rat
Excerpt: FIG. 1 is a flow-chart illustrating the experimental design of the investigations described herein. Female Sprague Dawley rats (Taconic, German Town, N.Y.) were placed on a purified diet of 0.5% calcium and 0.4% phosphorus (AIN-76A Rodent Diet, prepared by Research Diet, Inc., New Brunswick, N.J.). At 4 months of age, a first subset (20) of the animals was sham-operated while a second subset (90) was ovariectomized. The time of ovariectomy is designated as week 0. Eight weeks after this surgery, the ovariectomized animals were divided into experimental groups receiving the following dosing regimen: 2MD, at doses of 0.5, 1.0, 2.5, 5.0 and 10 ng/kg/day; calcitriol (the active form of vitamin D), at doses of 50 ng/kg/day and 200 ng/kg/day; and human parathyroid hormone hPTH, at doses of 20 μg/kg/day. The 2MD and the calcitriol were administered orally in 100 μl of vegetable oil delivered to the back of the tongue by a throat tube, while the hPTH was administered sub-cutaneously.
Serum calcium was measured by tail bleeding at week 14 ([…]), week 21 and week 24. At week 24, the animals were sacrificed and the following endpoint measurements were taken: whole body DEXA; bone markers: osteocalcin and deoxypyridinoline (DPD); peripheral quantitative computed tomography (pQCT) of the distal femoral metaphysis (DFM) and femoral shaft (FS); micro-computerized tomography (micro-CT) of the DFM; serum parathyroid hormone (PTH); histomorphometry of the proximal tibial metaphysis (PTM), lumbar vertebra 3 (LV3) and trabecular separation (TS); and bone strength of the DFM, FS and lumbar vertebra 5 (LV5).
At week 0, the animals underwent surgical treatment as explained above. The animals were allowed to recuperate for 8 weeks before the dosing regimen began (0 wk). At 24 weeks post-surgery the animals were sacrificed and endpoint measurements were taken as explained above.

[3] = 10 ng/kg/day oral, DEXA, FIG. 3
[4] = 10 ng/kg/day oral, DEXA, FIG. 4
[5] = doses of at least 2.5 ng/kg/day, DEXA, FIG. 4
[6] = 200 ng/kg/day oral, DEXA, FIG. 4

C[C@H](CCCC(C)(C)O)[C@H]1CC[C@H]2/C(=C/C=C3C[C@@H](O)C[C@H](O)C3)CCC[C@]12C [1α,25-dihydroxy-19-nor-vitamin D3, reference compound]
calcium mobilizing activity ([1]; biological testing of 19-nor-analogs): very low
potency in inducing cellular differentiation (human leukemia cells): high potency

C=C1[C@H](O)CC(=C/C=C2\CCC[C@]3(C)[C@@H]([C@@H](C)CCCC(C)(C)O)CC[C@@H]23)C[C@H]1O [2MD, 2-methylene-19-nor-(20S)-1α,25 dihydroxyvitamin D3]
activity relative to calcitriol in inducing genes in the osteoblast cell line (osteoblast cell line): at least 100 fold
intestinal calcium transport activity [2]: low
percent body fat compared to ovariectomized/vehicle controls (ovariectomized rats; 0.5 ng/kg/day oral, DEXA, FIG. 3): little to no effect; also recorded: noticeable trend for a reduced increase
percent body fat compared to ovariectomized/vehicle controls (ovariectomized rats; 1 ng/kg/day oral, DEXA, FIG. 3): little to no effect
percent body fat compared to ovariectomized controls (ovariectomized rats; 5 ng/kg/day oral, DEXA, FIG. 3): significant decrease
body fat component compared to ovariectomized-vehicle controls (ovariectomized rats; 5 ng/kg/day oral, DEXA, FIG. 4): significantly less body fat
bone mineral content (BMC) component compared to sham-operated controls (ovariectomized rats; 5 ng/kg/day oral, DEXA, FIG. 4): an increase
lean component compared to sham-operated controls (ovariectomized rats; 5 ng/kg/day oral, DEXA, FIG. 4): an increase
total body weight compared to sham/vehicle controls (ovariectomized rats; 5 ng/kg/day oral, DEXA, FIG. 4): significantly increased
reduction in body fat compared with calcitriol at 200 ng/kg/day (ovariectomized rats; 5 ng/kg/day oral, FIG. 3): as great an effect
percent body fat compared to ovariectomized controls (ovariectomized rats; [3]): significant decrease
percent body fat compared to sham-operated controls (ovariectomized rats; [3]): noticeably less percent body fat
body fat component compared to ovariectomized controls (ovariectomized rats; [4]): significantly lower
body fat component compared to sham-operated controls (ovariectomized rats; [4]): less body fat
body weight compared to ovariectomized controls (ovariectomized rats; [4]): significantly reduced
lean body weight plus bone mineral content relative to sham operated animals (ovariectomized rats; [4]): increased
lean body weight relative to sham operated animals (ovariectomized rats; [4]): increased
total body weight compared to sham-control (ovariectomized rats; [4]): virtually the same
decrease in the fat component compared with the group receiving 200 ng/kg/day calcitriol (ovariectomized rats; 10 ng/kg/day oral, FIG. 3): greater decrease
increase in lean body component and bone mineral component compared with calcitriol at 50 ng/kg/day (ovariectomized rats; DEXA, FIG. 4): more positive effect
body fat content (ovariectomized rats; OVX rats, 2MD 10 ng/kg/day oral, DEXA at week 24 (sham-operated group 25%)): 20%
bone mineral content (BMC) relative to sham-operated or ovariectomized controls (ovariectomized rats; [5]): noticeable increase
lean body weight relative to sham-operated or ovariectomized controls (ovariectomized rats; [5]): noticeable increase
fat component relative to OVX-controls (ovariectomized rats; starting at the 1 ng/kg/day dose, DEXA, FIG. 4): trend for a decrease
bone calcium mobilization activity ([1]; studies described in Shevde et al.): high

C=C1/C(=C\C=C2/CCC[C@]3(C)[C@@H]([C@H](C)CCCC(C)(C)O)CC[C@@H]23)C[C@@H](O)C[C@@H]1O [calcitriol, 1α,25-dihydroxyvitamin D3, reference compound]
percent body fat compared to ovariectomized controls (ovariectomized rats; 50 ng/kg/day oral, DEXA, FIG. 3): at most only a minor difference
percent body fat compared to ovariectomized controls (ovariectomized rats; 200 ng/kg/day oral, DEXA, FIG. 3): significant decrease
body fat compared to ovariectomized controls (ovariectomized rats; [6]): less body fat
body fat compared to sham-operated controls (ovariectomized rats; [6]): noticeable increase in body fat
body weight compared to ovariectomized controls (ovariectomized rats; calcitriol group, DEXA, FIG. 4): only a tendency for reduction
overall body weight compared to sham-controls (ovariectomized rats; calcitriol group, DEXA, FIG. 4): increase in overall body weight
reduction of total body weight (ovariectomized rats; even at much higher doses than 2MD): did not act to significantly reduce

B1: hPTH: human parathyroid hormone hPTH, administered sub-cutaneously at 20 μg/kg/day (peptide, UniProt P01270 32-115, looked up)
Parathyroid hormone: SVSEIQLMHNLGKHLNSMERVEWLRKKLQDVHNFVALGAPLAPRDAGSQRPRKKEDNVLVESHEKSLGEADKADVNVLTKAKSQ
modifications: Parathyroid hormone
notes: human parathyroid hormone hPTH, administered sub-cutaneously at 20 μg/kg/day
percent body fat compared to ovariectomized controls (ovariectomized rats; 20 μg/kg/day sub-cutaneously, DEXA, FIG. 3): at most only a minor difference
